Tests used:
dopamine D3 receptor = dopamine D3 receptor (Macaca mulatta, UniProt F6U709); assay: radioligand saturation binding by quantitative autoradiography on brain sections
[1] = target: dopamine D3 receptor (rD3) (Rattus norvegicus, UniProt P19020); assay: radioligand saturation binding
[2] = target: dopamine D3 receptor (hD3) (Homo sapiens, UniProt P35462); assay: radioligand saturation binding
Sequence of dopamine D3 receptor (hD3) (P35462 whole entry): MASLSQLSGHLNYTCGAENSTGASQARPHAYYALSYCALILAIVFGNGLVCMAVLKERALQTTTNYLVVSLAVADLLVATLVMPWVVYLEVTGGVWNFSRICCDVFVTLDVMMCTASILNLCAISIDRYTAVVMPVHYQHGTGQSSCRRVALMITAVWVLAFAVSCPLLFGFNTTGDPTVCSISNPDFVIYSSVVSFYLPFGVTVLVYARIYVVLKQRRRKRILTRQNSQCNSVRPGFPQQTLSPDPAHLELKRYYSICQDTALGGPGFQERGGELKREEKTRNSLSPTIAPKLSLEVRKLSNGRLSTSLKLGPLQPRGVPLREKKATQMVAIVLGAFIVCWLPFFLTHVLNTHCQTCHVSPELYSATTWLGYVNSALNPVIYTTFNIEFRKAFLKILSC

Sequence of dopamine D3 receptor (F6U709 1-400): as the sequence (P35462 whole entry) above, with S3P, A17V, I101V, A151T, P247R, K281R counted along it
Sequence of dopamine D3 receptor (rD3) (P19020 whole entry): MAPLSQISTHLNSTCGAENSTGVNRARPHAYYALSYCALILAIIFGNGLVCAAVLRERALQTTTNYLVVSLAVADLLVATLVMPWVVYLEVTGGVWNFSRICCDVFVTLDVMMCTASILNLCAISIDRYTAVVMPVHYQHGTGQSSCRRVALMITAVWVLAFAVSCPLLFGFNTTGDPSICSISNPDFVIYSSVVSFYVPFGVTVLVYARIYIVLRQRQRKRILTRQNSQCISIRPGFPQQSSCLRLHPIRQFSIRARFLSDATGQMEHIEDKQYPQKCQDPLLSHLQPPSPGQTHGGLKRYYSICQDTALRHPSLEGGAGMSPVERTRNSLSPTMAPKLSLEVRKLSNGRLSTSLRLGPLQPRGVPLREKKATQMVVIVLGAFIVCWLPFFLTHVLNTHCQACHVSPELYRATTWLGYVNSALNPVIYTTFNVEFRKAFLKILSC

Compound	Kd (dopamine D3 receptor) [nM]	Kd [1] [nM]	Kd [2] [nM]
COc1ccccc1N1CCN(CCCCNC(=O)c2ccc(N(C)C)cc2)CC1 [WC-10, 4-(Dimethylamino)-N-(4-(4-(2-methoxyphenyl)piperazin-1-yl)butyl)benzamide]	1.1	–	–
CCN1CCC[C@H]1CNC(=O)c1c(O)c(Cl)cc(Cl)c1OC [[^3H]raclopride]	–	17.1 ± 1.7	18 ± 1

Source: paper PMC2783604 (Synapse (New York, N.Y.), 2009)
